Experiments:
[1] = without any solubility enhancement techniques; cited from earlier work
[2] = Aqueous solubility of curcumin at different pH (FIG. 6A/6B); format: physicochemical

What does the source list for `COc1cc(/C=C/C(=O)CC(=O)/C=C/c2ccc(O)c(OC)c2)ccc1O` [free curcumin, (1E,6E)-1,7-bis(4-hydroxy-3-methoxyphenyl)-1,6-heptadiene-3,5-dione]?
solubility in water [1]: less than 1 μg/ml; aqueous solubility of curcumin (colour of solution) ([2]; pH 1.2): absence of soluble curcumin; aqueous solubility of curcumin (colour of solution) ([2]; pH 4.5): absence of soluble curcumin; aqueous solubility of curcumin (colour of solution) ([2]; pH 7.0): absence of soluble curcumin; aqueous solubility of curcumin (colour of solution) ([2]; pH 7.4): absence of soluble curcumin

— patent publication US9504754B2, “Curcuminoid complexes with enhanced stability, solubility and/or bioavailability” (South Dakota Board of Regents, priority 2013, dated 2016)
